Test results taken from US20080031866A1, “METHOD FOR MODULATING THE PHARMACOKINETICS AND METABOLISM OF A THERAPEUTIC AGENT” (priority 2006, published 2008).

Experiments:
[1] = Oral gavage pharmacokinetics, jugular and portal vein sampling, first pass metabolism; assay type: in vivo, rat; conditions: for AUC: po, 75 mg/kg; for AUC / concentration at 0 h / concentration at 0.08 h / concentration at 0.25 h / concentration at 0.33 h / concentration at 0.5 h / concentration at 0.67 h / concentration at 1 h / concentration at 1.25 h / concentration at 1.5 h / concentration at 2 h / concentration at 3 h / concentration at 4 h / concentration at 6 h / concentration at 12 h / concentration at 24 h / Cmax: rats N=4; for Cmax: read-out: Cmax average ± standard deviation
Procedure: (§1) Two separate IV studies were carried out using two separate lots of animals. IV-A was run on the same lot of animals as the oral gavage study and IV-B was run on the same lot of animals as the intraduodenal and intra-colonic studies.
For the oral gavage dosing, Compound 1 was prepared in neat PEG-400. For the intraduodenal and intracolonic dosing solutions, Compound 1 was added to neat Tween 80, the mixture was sonicated for thirty minutes at 45° C. until Compound 1 was completely dissolved and then deionized (DI) water was added to form a solution consisting of 20% Tween 80 and 80% DI water by weight.
(§2) For the IV and oral gavage dosing (sampling at jugular and portal vein), young adult male Sprague Dawley rats weighing 250-400 g were purchased from Hilltop Lab Animals Inc. All rat experiments were conducted under approved animal protocols. The rats for the oral gavage dosing were catheterized at Hilltop Lab Animals Inc, had two chronic catheters for sampling: jugular and portal, were housed in cages of Culex™ Automated Blood Sampler (ABS) and blood samples were collected simultaneously via both cannula and were controlled by the Culex™ ABS control software.
(§3) A quantitative method for determining the amount of (6,7-dimethoxy-2,4-dihydro-indeno[1,2-c]pyrazol-3-yl)-(3-fluoro-phenyl)-amine Compound 1 and its major metabolites, glucuronide A (Cpd 1-GluA) and glucuronide B (Cpd 1-GluB) (see Scheme A) in rat plasma was developed using phenacetin as an internal standard. [drawing 1]
(§4) The two glucuronide conjugates were prepared and purified to permit accurate quantification of the levels of intact parent Compound 1 versus Cpd 1-GluA and Cpd 1-GluB. Each standard curve for Compound 1, Cpd 1-GluA, and Cpd 1-GluB generated from rat plasma included ten concentration levels. […] The quantitative procedure for each sample included: sample preparation, HPLC separation and mass spectrometry detection.
(§5) The rat plasma was prepared using protein precipitation techniques. Reference standards and quality control samples in rat plasma for Compound 1 were transferred to a 96 deep-well plate. The precipitation solution contained 100 ng/ml of internal standard in acetonitrile. 300 μl of precipitation solution were added to 100 μl of each standard, quality control and plasma sample. Samples were vortexed for 10 mins, then centrifuged at 4500 RPM for 10 mins. 10 μl of each sample were injected for LC/MS/MS analysis.
(§6) The HPLC column chosen for the bioanalysis was purchased from Thermo Electron (Hypersil BetaBasic C18, 5 cm×2.1 mm). The eluting solvents were composed of Solvent A: 0.1% formic acid in H2O and Solvent B: 0.1% formic acid in acetonitrile. A step gradient was used and flow rate was 300 μl/min. The total run time was 3.2 mins. Solvent B was increased from 35% at 0 min to 75% at 2.1 mins and decreased back to 35% at 2.2 mins. The retention times for Compound 1, phenacetin, Cpd 1-GluA and Cpd 1-GluB were 1.1 min, 0.9 min, 1.3 min, and 1.6 min, respectively.
API3000 with a Turbo Ionspray interface from Applied Biosystems was used for the detection of Compound 1, the internal standard and major metabolites. Electrospray ionization was performed in the positive ion mode heated nebulizer with a temperature of 300° C. LC/MS/MS chromatograms were acquired in MRM (multiple reaction mode). The MRM transitions for Compound 1, the internal standard, Cpd 1-GluA and Cpd 1-GluB were from 326.3 to 190.6, 181.1 to 110.3, 502.2 to 368.3 and 502.2 to 326.4, respectively. […]

[2] = IV pharmacokinetics of Compound 1 and its glucuronides in rats; assay type: in vivo, rat
Procedure: as §1
For the IV dosing solutions (IV), Compound 1 was prepared by addition to DI water containing 20% hydroxypropyl β-cyclodextran by weight.
as §2, §3, §4, §5, §6
API3000 with a Turbo Ionspray interface from Applied Biosystems was used for the detection of Compound 1, the internal standard and major metabolites. Electrospray ionization was performed in the positive ion mode heated nebulizer with a temperature of 300° C. LC/MS/MS chromatograms were acquired in MRM (multiple reaction mode). The MRM transitions for Compound 1, the internal standard, Cpd 1-GluA and Cpd 1-GluB were from 326.3 to 190.6, 181.1 to 110.3, 502.2 to 368.3 and 502.2 to 326.4, respectively.
Pharmacokinetic analysis of the plasma concentration data was performed to determine the maximum plasma concentration (Cmax) for the oral dose, and the concentration at zero time (C0; Compound 1 only) by the extrapolation of drug concentrations back to the time of i.v. dosing, the time to maximum plasma concentration (Tmax) following the oral dose, area under the plasma concentration vs. time curve (AUC), terminal half-life (t1/2), plasma clearance (CL/F; Compound 1 only), and volume of distribution at steady state (Vdss; Compound 1 only) for the i.v. dose, using the WinNonlin (Version 3.1, Pharsight, Palo Alto, Calif.) validated computer program.

[3] = male, Sprague Dawley, rat, plasma (jugular vein sample), Compound 1 75 mg/kg oral gavage, jugular sample
[4] = male, Sprague Dawley, rat, plasma (portal vein sample), Compound 1 75 mg/kg oral gavage, portal sample
[5] = male, Sprague Dawley, rat, portal vein plasma, Compound 1 75 mg/kg oral gavage, portal sample

For `COc1cc2c(cc1OC)-c1n[nH]c(Nc3cccc(F)c3)c1C2` [Compound 1, (6,7-dimethoxy-2,4-dihydro-indeno[1,2-c]pyrazol-3-yl)-(3-fluoro-phenyl)-amine], the “Local absorption ratio (Fa)” value ([1]; Compound 1 75 mg/kg oral, Equation (2)) was 48±18%, the “Hepatic recovery ratio (Fh)” value ([1]; Equation (3)) was 40% and the “Extent of first pass metabolism” value ([1]; gut) was 52%. For the same compound, the “Extent of first pass metabolism” value ([1]; liver) was 60%, the AUC ([1]; male, Sprague Dawley, rat, plasma (jugular vein sample), Compound 1 75 mg/kg oral gavage, jugular sample, read-out: AUC average ± standard deviation 0 to 24 hours) was 2340 ng·h/mL and the AUC ([1]; male, Sprague Dawley, rat, plasma (jugular vein sample), Compound 1 75 mg/kg oral gavage, jugular sample, read-out: AUC average ± standard deviation 0 to infinite hours) was 2410 ng·h/mL. The concentration at 0 h [1, 3] was 6.7 ng/mL, the concentration at 0.08 h [1, 3] was 447 ng/mL and the concentration at 0.25 h [1, 3] was 2120 ng/mL. It also gave a concentration at 0.33 h [1, 3] of 1770 ng/mL, a concentration at 0.5 h [1, 3] of 1220 ng/mL and a concentration at 0.67 h [1, 3] of 626 ng/mL. It also gave a concentration at 1 h [1, 3] of 442 ng/mL, a concentration at 1.25 h [1, 3] of 465 ng/mL and a concentration at 1.5 h [1, 3] of 409 ng/mL. The concentration at 2 h [1, 3] was 378 ng/mL, the concentration at 3 h [1, 3] was 127 ng/mL and the concentration at 4 h [1, 3] was 61.3 ng/mL. For the same compound, the concentration at 6 h [1, 3] was 51.1 ng/mL, the concentration at 12 h [1, 3] was 22.8 ng/mL and the concentration at 24 h [1, 3] was 7.7 ng/mL. It also gave a Cmax [1, 3] of 2120 ng/mL, a concentration at 0.67 h [1, 4] of 2300 ng/mL and a concentration at 1 h [1, 4] of 346 ng/mL. It also gave a concentration at 1.25 h [1, 4] of 972 ng/mL, a concentration at 1.5 h [1, 4] of 465 ng/mL and a concentration at 2 h [1, 4] of 1880 ng/mL. It also gave a concentration at 3 h [1, 4] of 336 ng/mL, a concentration at 4 h [1, 4] of 398 ng/mL and a concentration at 6 h [1, 4] of 1010 ng/mL. For the same compound, the concentration at 12 h [1, 4] was 250 ng/mL, the bioavailability ([1]; male, Sprague Dawley, rat, plasma, Compound 1 75 mg/kg oral, read-out: Systemic oral bioavailability) was 19 ± 5% and the Tmax ([1]; male, Sprague Dawley, rat, plasma, rats, Compound 1 75 mg/kg oral gavage) was 15 min. It also gave an AUC ([1]; male, Sprague Dawley, rat, portal vein plasma, Compound 1 75 mg/kg oral gavage, portal sample, read-out: AUC average ± standard deviation 0 to 24 hours) of 11900 ng·h/mL, an AUC ([1]; male, Sprague Dawley, rat, portal vein plasma, Compound 1 75 mg/kg oral gavage, portal sample, read-out: AUC average ± standard deviation 0 to infinite hours) of 12500 ng·h/mL and a concentration at 0 h [1, 5] of 2.4 ng/mL. It also gave a concentration at 0.08 h [1, 5] of 7520 ng/mL, a concentration at 0.25 h [1, 5] of 4250 ng/mL and a concentration at 0.33 h [1, 5] of 3880 ng/mL. The concentration at 0.5 h [1, 5] was 873 ng/mL, the concentration at 24 h [1, 5] was 224 ng/mL and the Cmax [1, 5] was 8690 ng/mL. The “Plasma level of Compound 1 relative to level of the metabolites” value ([1]; oral administration) was 6%, the “Plasma level of Compound 1 relative to level of the metabolites” value ([2]; IV administration) was 2% and the AUC ([2]; Sprague Dawley, rat, plasma, male rats N=4, Compound 1 2 mg/kg IV, read-out: AUC average ± standard deviation) was 345 ± 42 ng·h/mL. For the same compound, the C0 ([2]; Sprague Dawley, rat, plasma, male rats N=4, Compound 1 2 mg/kg IV, read-out: C0 (concentration at zero time, by extrapolation)) was 783 ng/mL, the Cmax ([2]; Sprague Dawley, rat, plasma, male rats N=4, Compound 1 2 mg/kg IV, read-out: Cmax average ± standard deviation) was 783 ± 233 ng/mL and the concentration at 0.08 h ([2]; Sprague Dawley, rat, plasma, male rats N=4, Compound 1 2 mg/kg IV, retro orbital sinus, 0.08 hrs) was 610 ng/mL. For the same compound, the concentration at 0.33 h ([2]; Sprague Dawley, rat, plasma, male rats N=4, Compound 1 2 mg/kg IV, retro orbital sinus, 0.33 hrs) was 286 ng/mL, the concentration at 1 h ([2]; Sprague Dawley, rat, plasma, male rats N=4, Compound 1 2 mg/kg IV, retro orbital sinus, 1 hr) was 71.3 ng/mL and the concentration at 2 h ([2]; Sprague Dawley, rat, plasma, male rats N=4, Compound 1 2 mg/kg IV, retro orbital sinus, 2 hrs) was 16.3 ng/mL. The concentration at 4 h ([2]; Sprague Dawley, rat, plasma, male rats N=4, Compound 1 2 mg/kg IV, retro orbital sinus, 4 hrs) was 1.2 ng/mL, the concentration at 8 h ([2]; Sprague Dawley, rat, plasma, male rats N=4, Compound 1 2 mg/kg IV, retro orbital sinus, 8 hrs) was 0 ng/mL and the concentration at 24 h ([2]; Sprague Dawley, rat, plasma, male rats N=4, Compound 1 2 mg/kg IV, retro orbital sinus, 24 hrs) was 0 ng/mL.
